Experiment [1] deals with T1, human dopamine D4 receptor (Homo sapiens, UniProt P21917).
T1 construct: expressed in transfected cells
T1 sequence (P21917 1-419): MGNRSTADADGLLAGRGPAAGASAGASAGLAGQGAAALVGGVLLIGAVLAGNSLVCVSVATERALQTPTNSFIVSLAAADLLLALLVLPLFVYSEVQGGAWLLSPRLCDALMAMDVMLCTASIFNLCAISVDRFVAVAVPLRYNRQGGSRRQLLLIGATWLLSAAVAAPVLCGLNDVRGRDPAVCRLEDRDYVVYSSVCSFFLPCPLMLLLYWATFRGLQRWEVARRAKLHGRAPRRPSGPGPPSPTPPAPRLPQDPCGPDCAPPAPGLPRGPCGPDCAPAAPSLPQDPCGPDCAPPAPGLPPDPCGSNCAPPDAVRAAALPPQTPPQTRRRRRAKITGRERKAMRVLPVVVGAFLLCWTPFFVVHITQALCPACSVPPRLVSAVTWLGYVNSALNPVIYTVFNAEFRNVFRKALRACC
The experiment in a line: D4 dopaminergic activity: [3H]Spiperone competition binding (assay similar to the one described). Particulars: assay similar to the [3H]Spiperone binding assay on clonal cell lines expressing the human dopamine D4 receptor. Here is the method: The D4 dopaminergic activity of the compounds of the present invention may be determined by the following procedure.
(§1) The determination of D4 dopaminergic activity has been described by Van Tol et al., Nature, vol. 350, 610 (London, 1991). Clonal cell lines expressing the human dopamine D4 receptor are harvested and homogenized (teflon pestle) in a 50 mM Tris:HCI (pH 7.4 at 4°C) buffer containing 5 mM EDTA, 1.5 mM calcium chloride (CaCl2), 5 mM magnesium chloride (MgCL2), 5mM potassium chloride (KCI) and 120 mM sodium chloride (NaCI). The homogenates are centrifugated for 15 min. at 39,000 g, and the resulting pellets resuspended in a buffer at a concentration of 150-250 µg/ml. For saturation experiments, 0.25 ml aliquots of tissue homogenate are incubated in duplicate with increasing concentrations of [^3H] Spiperone (70.3 Ci/mmol; 10-3000 pM final concentration) for 30-120 minutes at 22°C in a total volume of 1 ml. […] Assays are terminated by rapid filtration through a Titertek cell harvester and the filters subsequently monitored for tritium as described by Sunahara, R.K. et al., Nature, 346, 76-80 (1990). […] Both saturation and competition binding data are analyzed by the non-linear least square curve-fitting program Ligand run on a digital Micro-PP-11 as described by Sunahara et al.

The target in a further experiment is D2 receptor (Homo sapiens, UniProt P14416). The experiment in a line: D2 receptor binding in an assay similar to the D4 [3H]Spiperone binding assay. Particulars: assay similar to the described [3H]Spiperone binding assay. The protocol:
as §1

Drawing on patent EP0765320B1, “BENZIMIDAZOLONE DERIVATIVES WITH CENTRAL DOPAMINERGIC ACTIVITY” (PFIZER INC., priority 1994, dated 1995), this text covers IC50 for two compounds.

The term IC50 denotes the midpoint of a concentration-inhibition curve. Low readings indicate greater potency, high ones weaker potency.

Sequence of D2 receptor (P14416 whole entry): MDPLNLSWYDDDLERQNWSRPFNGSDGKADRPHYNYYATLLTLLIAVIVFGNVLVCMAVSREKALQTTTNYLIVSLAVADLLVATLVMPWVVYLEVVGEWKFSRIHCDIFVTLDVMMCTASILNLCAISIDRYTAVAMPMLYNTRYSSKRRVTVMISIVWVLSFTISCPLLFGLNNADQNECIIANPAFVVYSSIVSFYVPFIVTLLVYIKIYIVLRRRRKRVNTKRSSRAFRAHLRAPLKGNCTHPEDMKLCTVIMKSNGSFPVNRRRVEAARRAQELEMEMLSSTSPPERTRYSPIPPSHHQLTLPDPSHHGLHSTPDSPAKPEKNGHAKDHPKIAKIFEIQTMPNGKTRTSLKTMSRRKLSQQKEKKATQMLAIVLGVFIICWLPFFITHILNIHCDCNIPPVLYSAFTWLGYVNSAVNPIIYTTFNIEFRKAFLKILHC

With `O=c1[nH]c2ccccc2n1CCCN1CCN(c2ccc(Cl)cn2)CC1` [Example 1, 1-{3-[4-(5-Chloro-pyridin-2-yl)-piperazin-1-yl]-propyl}-1,3-dihydrobenzoimidazol-2-one], the half-maximal inhibitory concentration (IC50) in experiment [1] is at most 110 nM; at D2 receptor it was 1000 to 3300 nM.

For the compound `O=c1[nH]c2ccccc2n1CCCN1CCN(c2ccc(C(F)(F)F)cn2)CC1` [Example 4, 1-{3-[4-(5-Trifluoromethyl-pyridin-2-yl)-piperazine-1-yl]-propyl}-1,3-dihydrobenzoimidazol-2-one], the IC50 in experiment [1] is at most 110 nM; at D2 receptor, 1000 to 3300 nM.
